Columns and labels:
[1] = Inhibition of Streptococcus pneumoniae FabK using t-o-NAC as substrate in presence of NADPH by […]
KB 3-1 = assay: Cytotoxicity against human KB 3-1 cells assessed as cell growth inhibition; assay type: functional, cell-based
L929 = assay: Cytotoxicity against mouse L929 cells assessed as cell growth inhibition; assay type: functional, cell-based
[2] = Antioxidant activity assessed as DPPH radical scavenging activity by absorbance based analysis; assay type: functional
[3] = Inhibition of Saccharomyces cerevisiae alpha-glucosidase using pNPG as substrate preincubated for 10 mins followed by substrate addition measured after 15 mins by absorbance based microplate reader analysis
[4] = Inhibition of 17beta-HSD1 (unknown origin); set-up: species or system Homo sapiens
[5] = Inhibition of Escherichia coli FabK using t-o-NAC as substrate in presence of NADPH by […]
[6] = Inhibition of Staphylococcus aureus FabK using t-o-NAC as substrate in presence of NADPH by […]
[7] = Inhibition of TNF-alpha production in rat RBL-2H3 cells; assay type: functional, cell-based
HepG2 = assay: Antiproliferative activity against human HepG2 cells assessed as cell growth inhibition measured after 48 hrs; assay type: functional, cell-based; conditions: HepG2, 48 h
[8] = Antioxidant activity assessed as DPPH radical scavenging activity measured after 30 mins under dark condition by microplate reader analysis; assay type: functional

O=C1C(O)=C(c2ccc(O)c(O)c2)C(=O)C(O)=C1c1ccc(O)cc1
IC50 [1]: 1.57 µM | IC50 (KB 3-1): 7 µM | IC50 (L929): 17 µM

O=C(Cc1ccccc1)Oc1c(O)c(-c2ccc(O)cc2)c(OC(=O)c2ccc(O)cc2)c(O)c1-c1ccc(O)cc1
EC50 [2]: 0.028 µM

CC(=O)Oc1c(OC(=O)c2ccccc2)c(-c2ccc(O)cc2)c(OC(=O)c2ccccc2)c(OC(=O)c2ccccc2)c1-c1ccc(O)cc1
IC50 [3]: 2.98 µM

O=C1C(O)=C(c2ccc(O)cc2)C(=O)C(O)=C1c1ccc(O)cc1
EC50 [4]: > 100 µM | IC50 [1]: 0.24 µM | IC50 [5]: > 200 µM | IC50 [6]: > 200 µM

O=C(Cc1ccccc1)Oc1c(OC(=O)Cc2ccccc2)c(-c2ccc(O)cc2)c(O)c(O)c1-c1ccc(O)cc1 [VIALININ A]
IC50 [7]: 0.02 nM | IC50 (HepG2): 7 µM

O=C(Oc1c(O)c(-c2ccc(O)cc2)c(OC(=O)c2ccc(O)cc2)c(O)c1-c1ccc(O)cc1)c1ccc(O)cc1
IC50 [7]: 3.5 nM

O=C1O[C@H]([C@@H](O)CO)C(O)=C1O [ASCORBIC ACID]
EC50 [2]: 0.27 µM

O=C(Cc1ccccc1)Oc1c(OC(=O)c2ccccc2)c(-c2ccc(O)cc2)c(O)c(O)c1-c1ccc(O)cc1
IC50 (HepG2): 7 µM

O=C(Oc1c(O)c(-c2ccc(O)cc2)c(OC(=O)c2ccccc2)c(O)c1-c1ccc(O)cc1)c1ccccc1
IC50 [3]: > 50 µM

O=C(Oc1c(OC(=O)c2ccccc2)c(-c2ccc(O)cc2)c(OC(=O)c2ccccc2)c(O)c1-c1ccc(O)cc1)c1ccccc1
IC50 [3]: 4.53 µM

CC(=O)Oc1c(OC(=O)c2ccccc2)c(-c2ccc(O)cc2)c(O)c(O)c1-c1ccc(O)cc1
IC50 [3]: 0.99 µM

COC1=C(c2ccc(O)cc2)C(=O)C(OC(=O)c2ccccc2)=C(c2ccc(O)cc2)C1=O
IC50 [3]: 18.8 µM | EC50 [8]: 150 µM

— ChEMBL document CHEMBL5104146, “Anti-inflammatory and anticancer p-terphenyl derivatives from fungi of the genus Thelephora” (Bioorg Med Chem, 2022)
